According to patent publication US20250228762A1, “COSMETIC COMPOSITION COMPRISING LUTEIN AND A POLYSACCHARIDE” (ALGAKTIV, S.L., priority 2022, published 2025):

Key:
Format in all cases: cell-based
RARbeta = test: RAR beta agonist assay (SelectScreen GeneBLAzer, UAS-bla HEK 293T)
Method: (§1) An agonist assay for RAR was performed by SelectScreen® Cell-Based Nuclear Receptor Profiling Service of Life Technologies. In this assay, an engineered cell line (UAS-bla HEK 293T) expressing RARalpha, RARbeta or RAR gamma is used to test the action of lutein. GeneBLAzer® technology, based on mammalian-optimized Beta-lactamase reporter gene (bla) combined with a FRET-enabled substrate, provides the assay with a sensitive detection method. […] The plate is incubated for 16-24 hours at 37° C./5% CO2 in a humidified incubator. 8 μL of 1 μM Substrate Loading Solution is added to each well and the plate is incubated for 2 hours at room temperature. The plate is read on a fluorescence plate reader.

RAR gamma = RAR gamma agonist assay (SelectScreen GeneBLAzer, UAS-bla HEK 293T)
Method: as §1

RARalpha = test: RAR alpha agonist assay (SelectScreen GeneBLAzer, UAS-bla HEK 293T)
Method: as §1

[1] = at any concentration below 3.2 μM

| EC50 (RARbeta; RAR-beta-UAS-bla HEK 293T, FIG. 3, read-out: EC50 (control agonist, RAR beta)) | EC50 (RAR gamma; RAR-gamma-UAS-bla HEK 293T, FIG. 4, read-out: EC50 (control agonist, RAR gamma)) | EC50 (RARalpha; RAR-alpha-UAS-bla HEK 293T, FIG. 2, read-out: EC50 (control agonist, RAR alpha)) | SMILES | concentrations at which a specific RAR-beta partial agonist effect could be measured (RARbeta; RAR-beta-UAS-bla HEK 293T) | RAR-beta activation (RARbeta; at 3.16 μM) | agonist effect on RAR gamma (RAR gamma; [1]) | agonist effect on RAR alpha (RARalpha; [1]) |
| --- | --- | --- | --- | --- | --- | --- | --- |
| – | – | – | CC1=C[C@H](O)CC(C)(C)[C@H]1/C=C/C(C)=C/C=C/C(C)=C/C=C/C=C(C)/C=C/C=C(C)/C=C/C1=C(C)C[C@@H](O)CC1(C)C [Lutein, (1R,4R)-4-{(1E,3E,5E,7E,9E,11E,13E,15E,17E)-18-[(4R)-4-Hydroxy-2,6,6-trimethylcyclohex-1-en-1-yl]-3,7,12,16-tetramethyloctadeca-1,3,5,7,9,11,13,15,17-nonaen-1-yl}-3,5,5-trimethylcyclohex-2-en-1-ol] | above 100 nm | ~40% | No agonist effect | No agonist effect |
| 0.46 nM | 0.131 nM | […] | CC1=C(/C=C/C(C)=C/C=C/C(C)=C/C(=O)O)C(C)(C)CCC1 [ATRA, reference compound] | – | – | – | – |
